Experimental data as given in paper PMC5945669, “Reversible glycosidic switch for secure delivery of molecular nanocargos” (Nature Communications, 2018).
Each block holds one compound with its values, some of them ahead of it.

Assays:
[1] = Octanol-to-water partitioning; details: for partitioning behavior in octanol-water two-phase system: 1-octanol / citric acid buffer pH 5 (Fig. 2f), in words; for Log P (partition coefficient): 24 h, pH 5
Protocol: Samples from the supernatant were analyzed by HPLC to determine water solubility. The partitioning of compounds between octanol and water was determined by adding 2.5 nmol of each substance to an equal volume (200 µL) mixture of octanol and 0.25 M citric acid, pH 5 and shaking for 24 h to permit equilibration between the two phases. The tubes were then centrifuged at 20,000 × g for 30 min at 20 °C and 20 μL samples from each phase were analyzed by HPLC. The partition coefficient is defined by the following equation, where “C” is the concentration of compound in each phase. A partition coefficient equal to 0 means that the compound equally distributes between each phase.

[2] = Regeneration of parental drug 9AC within tumors (tumor vs blood); type: in vivo, NOD/SCID mice; details: female, NOD/SCID, mouse, intravenous, printed in picture of Fig. 9b, read-out: 9AC per gram of tissue, Tumor vs Blood
Protocol: Twelve to 16 week old female NOD/SCID immunodeficient mice were inoculated with 10^7 MDA-MB468 human breast cancer cells. When tumors reached ~100 mm^3, the mice were intravenously injected with 14.5 µmol kg^−1 (10 mg kg^−1) of liposomal 9AC-G^W (based on the drug concentration). Blood was collected in Na-heparinized hematocrit tubes from the tail vein and mice were then killed to harvest the tumor tissue. Blood samples (100 µL) were centrifuged at 2500 × g for 3 min and the plasma was collected for analysis. Tumor tissue was homogenized in 3 mL RIPA buffer (25 mM Tris-HCl pH 7.5, 150 mM NaCl, 0.1% SDS, 0.5% Na-deoxycholate, 1% Triton X-100) on a IKA Ultra-Turrax® TP 18/10 homogenizer. The amount of 9AC was determined in blood and tumor samples by HPLC and normalized to amounts per gram of tissue, according to the relationship 1 mL of whole blood = 1.06 g of weight.

[3] = tested on: MDA-MB-468 human breast tumors; experiment: In vivo anticancer activity, subcutaneous human breast cancer xenograft; parameters: species or system NOD/SCID mice; details: four weekly injections
Protocol: MDA-MB468 human breast cancer cells (10^7 cells in 100 µL PBS) were injected subcutaneously in twelve to sixteen-week old female NOD/SCID immunodeficient mice. When tumors reached sizes ranging from 75 to 100 mm^3, groups of seven mice were treated at weekly intervals for four times with intravenous injections of 9AC at 5.5 µmol kg^−1 (2 mg kg^−1), 9AC-G^W at 14.5 µmol kg^−1 (10 mg kg^−1), liposomal 9AC-G^W at 14.5 µmol kg^−1 (10 mg kg^−1), or doxorubicin liposomes (Doxisome, 1.8 µmol kg^−1 equivalent to 1 mg kg^−1 and 5.5 µmol kg^−1 equivalent to 3 mg kg^−1). Tumor volumes, body weights, and survival were monitored for more than 2 months after treatments started. […] The tumor volume was calculated according to the following formula:2 TumorVolume=Length×Depth×Height/2

[4] = parental hydrophobic drugs; cited from earlier work
[5] = Pharmacokinetics in plasma after i.v. injection; parameters: species or system NOD/SCID female mice; details: female, NOD/SCID, mouse, in vivo, iv, 35 umol/kg
Protocol: 9AC-G^W was dissolved at 10.9 µmol mL^−1 (7.5 mg mL^−1) in 25 mM phosphate buffer pH 6.5 just before use. 9AC-G^W liposomes were concentrated by successive centrifugations at 5000, 10,000, and 20,000 × g for 30 min at 4 °C. After each centrifugation, the pellet was collected and resuspended in a smaller volume of buffer. The concentration of liposomal 9AC-G^W achieved through this method before injection was 5.1 µmol mL^−1 (3.5 mg mL^−1) based on 9AC-G^W. Each preparation (free 9AC-G^W and liposomal 9AC-G^W) was injected intravenously in the tail vein of 12–16 week old NOD/SCID female mice at 35 µmol kg^−1 (25 mg kg^−1) using three mice per group. Blood samples were collected at 5 min, 30 min, 60 min, 2 h, and 3 h for free 9AC-G^W, in addition to 6, 12, 26, 48, 148 h for 9AC-G^W liposomes with Na-heparinized hematocrit tubes from the tail vein. The plasma was separated from the red blood cells by centrifugation at 2500 × g for 3 min. […] The final results are expressed as 9AC-G^W plasma concentration in µmol L^−1 (µM). Biological half-lives were determined by an exponential two phase decay curve fit on GraphPad prism (GraphPad software, Inc.).

[6] = Water solubility (saturation, HPLC); type: physicochemical; details: 24 h
[7] = Stability and conversion of the lipid-soluble switch in liposomal external and internal buffers; type: physicochemical; details: 75 °C
Protocol: Error bars, SD, n = 3. c Kinetics of the conversion of 9AC-G^W to lipid-soluble 9AC-G^L, d BQC-G^W to BQC-G^L and e 4MU-G^W to 4MU-G^L in acidic methanol at 62 °C. The HPLC chromatograms show samples at 0, 15, 30, and 60 min. RFU relative fluorescent units. f Partition coefficients (Log scale) between 50 mM citric acid buffer pH 5 and 1-octanol of the parental compounds compared to their respective -G^W and -G^L forms. Error bars: SD, n = 5. g Stability of 9AC-G^L in liposomal external buffer (50 mM citric acid, 250 mM sodium sulfate, pH 5) at 75 °C. Error bars: SD, n = 3. h Conversion of 9AC-G^L to 9AC-G^W in liposomal internal buffer (50 mM HEPES, 250 mM calcium acetate, pH 8.5) at 75 °C. Error bars: SD, n = 3.
Water-soluble 9AC-G^W was obtained by incubating 50 µg 9AC-G^L in 500 µL of liposomal internal buffer at pH 8.5. After 1 h at 65 °C the reaction was analyzed by HPLC to assess the reformation of 9AC-G^W. A 20 µL sample of 9AC-G^W was then transferred to 1 mL of reaction buffer (100 mM sodium acetate, 100 ng mL^−1 bovine serum albumin, pH 4.5) containing 1 µg of purified recombinant human beta-glucuronidase[56] for 1 h at 37 °C to cleave the cue-responsive trigger and generate 9AC. Drug regeneration was also examined in a biological system where 10^5 cells (MDA-MB468, HCC36, and HCC36 anti-PEG) were seeded per well in a 96 well-plate in triplicate and incubated overnight. […]

[8] = in animals; no reference given; cited from earlier work
[9] = PBS pH 7.4, after 2 hr; no reference given; cited from earlier work
[10] = parameters: method as in earlier work; details: rats 50, 250, 500 mg/kg i.p. daily; dogs 50 mg/kg i.v.; ref 6 of peer review file; cited from earlier work

partitioning behavior in octanol-water two-phase system [1]: partitioned in the aqueous phase
partitioning behavior in octanol-water two-phase system ([1]; listed as 4MU-G^L): slightly lipophilic behavior
SMILES: Cc1cc(=O)oc2cc(O[C@@H]3O[C@H](C(=O)O)[C@@H](O)[C@H](O)[C@H]3O)ccc12 [4MU-G^W, 4-methylumbelliferyl-β-D-glucuronide, reference compound]

SMILES: CC[C@@]1(O)C(=O)OCc2c1cc1n(c2=O)Cc2cc3c(N)cccc3nc2-1 [9AC, 9-aminocamptothecin]
Kp at 24 h ([2]; 24 h post-injection): > 30
Kp at 72 h ([2]; 72 h post-injection): > 12
effect on tumor growth compared with TBS ([3]; 5.5 µmol kg^−1 i.v.): minimal effect on tumor growth
water solubility [4]: < 50 µg/mL

SMILES: CCC1(O)C(=O)OCc2c1cc1n(c2=O)Cc2cc3c(NC(=O)OCc4ccc(OC5OC(C(=O)O)C(O)C(O)C5O)cc4)cccc3nc2-1 [9AC-G^W, 9-aminocamptothecin-β-D-glucuronide]
effect on tumor growth compared with TBS ([3]; 14.5 µmol kg^−1 i.v.): minimal effect on tumor growth
half-life ([5]; initial half-life): 9.3 min
half-life ([5]; terminal half-life): 38.6 min
partitioning behavior in octanol-water two-phase system [1]: partitioned in the aqueous phase
partitioning behavior in octanol-water two-phase system ([1]; listed as 9AC-G^L): slightly lipophilic behavior
Log P (partition coefficient) [1]: ~ 1.1
water solubility, fold greater than the parental hydrophobic drug [6]: 680 fold
stability in liposomal external buffer ([7]; pH 5 (50 mM citric acid, 250 mM sodium sulfate)): stable
conversion in liposomal internal buffer ([7]; pH 8.5 (50 mM HEPES, 250 mM calcium acetate)): rapidly converted to the highly water-soluble 9AC-G^W

SMILES: CCC1(O)C(=O)OCc2c1cc1n(c2=O)Cc2c-1nc1ccc(O)c3c1c2CCC3 (centres unmarked) [BQC, 5,6-dihydro-4H-benzo[de]quinoline-camptothecin, reference compound]
Water solubility, fold difference between Parental and -G^W Switch [6]: > 3700 ×

SMILES: CCC1(O)C(=O)OCc2c1cc1n(c2=O)Cc2c-1nc1ccc(OCc3ccc(OC4OC(C(=O)O)C(O)C(O)C4O)c([N+](=O)[O-])c3)c3c1c2CCC3 [BQC-G^W, 5,6-dihydro-4H-benzo[de]quinoline-camptothecin-β-D-glucuronide]
partitioning behavior in octanol-water two-phase system [1]: partitioned in the aqueous phase
partitioning behavior in octanol-water two-phase system ([1]; listed as BQC-G^L): slightly lipophilic behavior
Log P (partition coefficient) [1]: ~ 1.3
water solubility, fold greater than the parental hydrophobic drug [6]: 3700 fold

SMILES: OCc1ccccc1 [Benzyl alcohol, benzyl alcohol]
LD50 dose [8]: greater than 1 g per kg

SMILES: CC[C@@]1(O)C(=O)OCc2c1cc1n(c2=O)Cc2cc3ccccc3nc2-1 [CPT]
activity remaining [9]: 10%

SMILES: O=C[C@H](O)[C@@H](O)[C@H](O)[C@H](O)C(=O)O [D-glucuronic acid]
functional or morphological changes after one-month treatment [10]: induced neither f unctional nor
